The source of these data is ChEMBL document CHEMBL2094269, “WEHI/Eskitis Trypanosoma b. brucei screening data”.

A value given as a limit tells only on which side of the number the result lay.

As usually defined, the IC50 is the concentration that inhibits the measured activity by half.

The test has as its system Trypanosoma brucei brucei. Briefly: microbe, parasite or virus in culture. The following applies: Trypanosoma brucei, STIB 795. Format: functional, organism-based, STIB 795.
Description: DNDI: Inhibition of Human African Trypanosomiasis (HAT), STIB 795, in vitro
`COc1ccc2nc(C)cc(Nc3ccc(N4CCOCC4)cc3)c2c1`: the IC50 is > 10.4 µM.

`O=C(Nc1nc(-c2ccccn2)cc2ccccc12)c1cccc(Cl)c1`: the 50% inhibitory concentration (IC50) was > 10.4 µM.

For the compound `O=C(CC(SCCO)c1ccc2c(c1)OCO2)c1cccs1` (stereo not drawn), the IC50 is > 10.4 µM.

`CCOC(=O)c1c(N)sc2c(OCC)c(Br)ccc12`: the IC50 was > 10.4 µM.

As to `CC1CCN(S(=O)(=O)c2ccc3c4c2CC(=O)N4CC(C)S3)CC1` (stereo not drawn), the IC50 was > 10.4 µM.

`Oc1c(C(c2ccccn2)N2CCCCC2)cc(Cl)c2cccnc12` (stereo not drawn): the 50% inhibitory concentration (IC50) is > 10.4 µM.

For `CC(NC(=O)c1cc(S(=O)(=O)N2CCCC2)cn1C)c1ccccc1` (stereo not drawn), the IC50 was > 10.4 µM.

Turning to `CC(=O)C1=C(c2ccc(Br)cc2)C(=O)c2ccccc2C1=O`, the IC50 is > 10.4 µM.

Consider `N#CC1=C(N)NC(SCc2ccc(F)cc2)=C(C#N)C12CCCCC2`, for which the IC50 is > 10.4 µM.

With `Clc1ccc(-c2nnc(NCCN3CCCC3)c3ccccc23)cc1`, the IC50 was > 10.4 µM.

On to `CCOc1cc(CNC2CCCC2)cc(Cl)c1OCc1ccccc1`, for which the 50% inhibitory concentration (IC50) is > 10.4 µM.

As to `COc1cc2c(cc1Cl)/C(=C\CCN(C)C)c1ccccc1S2`, the IC50 was > 10.4 µM.

For the compound `CC(NCC(O)COCCC12CC3CC(CC(C3)C1)C2)c1ccccc1` (stereo not drawn), the IC50 is > 10.4 µM.

With `Nc1nc(Nc2ccccc2)sc1C(=O)c1c[nH]c2ccccc12`, the IC50 was > 10.4 µM.

Regarding `CCOc1ccc(C(=O)N/N=C(\c2ccccc2)c2ccccn2)cc1`, the IC50 was > 10.4 µM.

In the case of `O=C(N/N=C\c1c(O)ccc2ccccc12)c1ccc(Cn2cccn2)o1`, the IC50 is > 10.4 µM.

`Cc1cc(Br)cc(/C=N/NC(=O)c2ccncc2)c1O`: the IC50 is > 10.4 µM.

Take `CC(=O)Nc1cccc2c1C(=O)C(Cl)=C(N1CCOCC1)C2=O`: the half-inhibitory concentration (IC50) was > 10.4 µM.

Regarding `CC1=C/C(=N\OC(=O)c2ccccc2Br)CC(C)(C)C1`, the IC50 is > 10.4 µM.

As for `Cc1cc(C(=O)N/N=C/c2ccc(-c3cccc(C(=O)O)c3)o2)[nH]n1`, the half-maximal inhibitory concentration (IC50) is > 10.4 µM.

As for `Cc1c(-c2cc(F)cc3c2CC(C)(C)O3)ccc2nc(N)nc(N)c12`, the IC50 was > 10.4 µM.

Take `CC1C(=O)Nc2ccc(S(=O)(=O)N3CCOCC3)cc2NC1=O` (stereo not drawn): the IC50 was > 10.4 µM.

`CCCc1ccc(C(OCCN(C)C)c2ccc(CCC)cc2)cc1`: the IC50 was > 10.4 µM.

In the case of `O=C1C(O)=C/C(=N/c2ccc(Cc3ccncc3)cc2)c2ccccc21`, the half-inhibitory concentration (IC50) was > 10.4 µM.

In the case of `OCCSc1nc2ccccc2nc1N/N=C/c1ccccc1O`, the IC50 is > 10.4 µM.

On to `Cc1cccc(/C(=N\c2ccc(C)c(Cl)c2)NC2CCCCC2)c1`, for which the half-inhibitory concentration (IC50) is > 10.4 µM.

`O=C(NCC1CCCO1)C(=O)N/N=C/c1c(O)ccc2ccccc12` (stereo not drawn): the IC50 is > 10.4 µM.

With `COCC(=O)N/N=C/c1ccc(Sc2cccc3cccnc23)o1`, the half-inhibitory concentration (IC50) is > 10.4 µM.

On to `O=C(CCSc1ccccc1)Nc1nc(-c2ccccn2)cs1`, for which the IC50 was > 10.4 µM.

Regarding `CON(C)C(=O)Nc1ccc(Cl)c(CN2OCC(C)(C)C2=O)c1`, the IC50 is > 10.4 µM.

For `CCn1c2ccccc2c2cc(/C=N/NC(=O)c3ccccn3)ccc21`, the half-maximal inhibitory concentration (IC50) is > 10.4 µM.

For `CCS(=O)(=O)c1cccc(-c2ccc3nc(N)nc(N)c3c2C)c1`, the IC50 is > 10.4 µM.

For `O=C(Cc1cccs1)Nc1ccc(C(=O)Nc2nccs2)cc1`, the half-maximal inhibitory concentration (IC50) is > 10.4 µM.

For the compound `Cc1nc(SCC(=O)NC2CCCCC2)n(-c2ccccc2)c1C`, the IC50 was > 10.4 µM.

As to `CCOC(=O)c1ccc(CCCCCOc2cnc(N)nc2N)cc1`, the IC50 was > 10.4 µM.

For `Cc1ccc2[nH]c3c(c2c1)CCC(/C=N/NC(=O)c1ccccc1)C3=O` (stereo not drawn), the IC50 was > 10.4 µM.

Take `CC(C)(C)c1ccc(C(CN)c2ccc(Oc3ccccc3)cc2)cc1` (stereo not drawn): the half-inhibitory concentration (IC50) was > 10.4 µM.

`Cc1ccc(NC(=O)C/C(N)=N/OC(=O)c2ccccc2Cl)cc1`: the half-inhibitory concentration (IC50) is > 10.4 µM.

`O=C(Nc1nccs1)c1ccc(=O)n(Cc2ccccc2Cl)c1`: the IC50 was > 10.4 µM.

Turning to `N#C/C(=C\Nc1cc(Cl)ccc1O)c1nc2cc(Cl)ccc2o1`, the IC50 was > 10.4 µM.

In the case of `CCOC(=O)c1ccc(NC(=O)C(=O)NN=C2CCN(C)CC2)cc1`, the IC50 is > 10.4 µM.

As to `CCN(CC)C1=C(n2nnc3ccccc32)C(=O)c2ccccc2C1=O`, the 50% inhibitory concentration (IC50) was > 10.4 µM.

As for `CCC(C)NC(=O)c1cccc(Nc2ccnc(-c3ccccc3)n2)c1` (stereo not drawn), the IC50 was > 10.4 µM.

Take `CC(C)CCn1c(/C=N/Nc2nc3ccccc3[nH]2)nc2ccccc21`: the 50% inhibitory concentration (IC50) was > 10.4 µM.

For the compound `C=CCn1c(Oc2ccccc2Cl)nc2c1c(=O)n(C)c(=O)n2C`, the IC50 is > 10.4 µM.

In the case of `CCOC(=O)CNC(=O)c1ccc2c(Cl)c3c(nc2c1)CCCC3`, the 50% inhibitory concentration (IC50) was > 10.4 µM.

Consider `O=C(CC1(O)C(=O)Nc2ccc(Br)cc21)c1ccccn1` (stereo not drawn), for which the half-maximal inhibitory concentration (IC50) is > 10.4 µM.

For the compound `C/C(=N\N1C(=O)c2ccccc2NC1c1ccco1)c1ccccc1O` (stereo not drawn), the IC50 is > 10.4 µM.

In the case of `CCCC1(CCC)c2ccccc2C(=CCCN(C)C)c2ccccc21`, the concentration for half-maximal inhibition (IC50) was > 10.4 µM.

With `CCOc1nc(Nc2ccc(Cl)cc2)nc(NC2CCCCC2)n1`, the IC50 was > 10.4 µM.

On to `Cc1cc(C(=O)N/N=C/c2cc(/N=N/c3ccccc3)ccc2O)[nH]n1`, for which the IC50 is > 10.4 µM.

Turning to `COC(=O)CCC/C=C1/SC[C@@H](NC(=O)c2ccccc2)/C1=N/O`, the IC50 was > 10.4 µM.

Turning to `N#Cc1c(N)nc(SCc2ccccc2)c(C#N)c1C1CCCCC1`, the IC50 was > 10.4 µM.

With `OC(CNCCc1ccccc1)Cn1c2c(c3ccccc31)CCCC2` (stereo not drawn), the half-maximal inhibitory concentration (IC50) is > 10.4 µM.

As for `O=C(N/N=C/c1ccc(Br)cc1O)c1n[nH]c2c1CCC2`, the IC50 is > 10.4 µM.

`O=C(Nc1ccccc1C(=O)N/N=C/c1ccccc1O)c1ccco1`: the concentration for half-maximal inhibition (IC50) is > 10.4 µM.

`CC(=O)c1sc(Nc2nc(NC(C)C)nc(NC(C)C)n2)nc1C`: the 50% inhibitory concentration (IC50) is > 10.4 µM.

For the compound `N#Cc1c(Cl)ncc2c1Nc1ccccc1C2Sc1ccccc1` (stereo not drawn), the half-maximal inhibitory concentration (IC50) is > 10.4 µM.

Regarding `Cc1nc(N)nc(N)c1[C@@H]1CCC[C@@H](c2ccc(C(F)(F)F)cc2)C1`, the IC50 was > 10.4 µM.

For the compound `CCc1cc(-c2n[nH]c(C)c2-c2nc3ccccc3s2)c(O)cc1O`, the 50% inhibitory concentration (IC50) is > 10.4 µM.

For `Nc1ccccc1SC(CC(=O)c1ccc(F)cc1)c1ccccc1` (stereo not drawn), the IC50 was > 10.4 µM.

For `O=C1C(=O)N(Cc2cc(F)cc(F)c2)c2ccc(Br)cc21`, the IC50 is > 10.4 µM.

As for `O=C(O/N=C(/c1ccc2c(c1)OCO2)N1CCCCC1)c1ccccc1`, the IC50 is > 10.4 µM.

As for `C=CCNC(=O)CCCc1nc2cccnc2n1Cc1ccc(F)cc1`, the IC50 was > 10.4 µM.

As to `CC(C)(C)C(=O)Nc1cccc(NC(=O)c2ccc(C(C)(C)C)cc2)c1`, the IC50 was > 10.4 µM.

Take `CCCN1C/C(=C/c2cccc(F)c2)C(=O)/C(=C/c2cccc(F)c2)C1`: the half-inhibitory concentration (IC50) is > 10.4 µM.

For the compound `O=C(N/N=C/c1cc(Cl)ccc1O)c1ccccc1Br`, the concentration for half-maximal inhibition (IC50) was > 10.4 µM.

`CC1(C)CC(=O)C(C2(O)C(=O)Nc3ccc(Br)cc32)CO1` (stereo not drawn): the IC50 is > 10.4 µM.

Take `NC(=S)N/N=C/c1ccc(OCc2c(Cl)cccc2Cl)cc1`: the IC50 is > 10.4 µM.

For `COc1ccc(-c2noc(CCC(=O)Nc3ccncc3)n2)cc1OC`, the concentration for half-maximal inhibition (IC50) is > 10.4 µM.

As to `Cn1c(=O)n(C)c2cc(N3CCCCC3)c(NC(=O)c3ccco3)cc21`, the half-maximal inhibitory concentration (IC50) was > 10.4 µM.

As to `Cc1nc2ncnn2c(Sc2ccc(NC(=O)CC(C)C)cc2)c1C`, the IC50 is > 10.4 µM.

For `CCOC(=O)Cc1csc(NC(=S)NC(=O)C2CCCCC2)n1`, the IC50 was > 10.4 µM.

In the case of `Clc1ccc(C(=C2CN3CCC2CC3)c2ccc(Cl)s2)s1`, the IC50 is > 10.4 µM.

In the case of `COc1ccccc1C(=O)NCCc1csc(-c2cccc(F)c2)n1`, the IC50 is > 10.4 µM.

On to `Fc1ccc(C2CCCN(CCN3CCCC3)c3cc(F)ccc32)cc1` (stereo not drawn), for which the 50% inhibitory concentration (IC50) is > 10.4 µM.

On to `Cc1nc(NC(C)(C)C)c2sc3nc4c(cc3c2n1)COC(C)(C)C4`, for which the half-maximal inhibitory concentration (IC50) is > 10.4 µM.

Turning to `O=C1c2ccc(Cl)c3c(Cl)ccc(c23)C(=O)N1Nc1ccccc1`, the concentration for half-maximal inhibition (IC50) is > 10.4 µM.

Regarding `CCC(C)(CC)c1ccc(C(CN)c2ccc(-c3ccccc3)cc2)cc1` (stereo not drawn), the concentration for half-maximal inhibition (IC50) was > 10.4 µM.

`O=C(N/N=C/c1ccc(-c2ccc(Br)cc2)o1)c1ccco1`: the concentration for half-maximal inhibition (IC50) is > 10.4 µM.

In the case of `COc1ccc(-c2n/c(=N/c3ccccc3)sn2-c2ccccc2)cc1`, the IC50 was > 10.4 µM.

Regarding `Cc1ccc(Nc2nc3nonc3nc2NC(C)c2ccccc2)cc1C` (stereo not drawn), the half-inhibitory concentration (IC50) was > 10.4 µM.

For the compound `Cc1ccc(C2=NC(c3ccccc3F)NC(c3ccccc3O)C2)cc1` (stereo not drawn), the IC50 was > 10.4 µM.

`CC1(C)CC(NC(=O)c2ccc(C#Cc3ccccc3)cc2)CC(C)(C)N1`: the IC50 is > 10.4 µM.

In the case of `Fc1ccc(OCc2nn3c(-c4ccccc4Cl)nnc3s2)cc1`, the 50% inhibitory concentration (IC50) was > 10.4 µM.

On to `COc1ccccc1NCN1C(=O)C(=O)c2cc(Br)ccc21`, for which the half-maximal inhibitory concentration (IC50) was > 10.4 µM.

Turning to `CCOC(=O)c1c(C)[nH]c2c1-c1cc(Br)ccc1C(=O)C2=O`, the half-maximal inhibitory concentration (IC50) is > 10.4 µM.

On to `Cc1occc1C(=O)N/N=C/c1ccc(-c2ccc(Cl)cc2Cl)o1`, for which the concentration for half-maximal inhibition (IC50) is > 10.4 µM.

`Cc1cnn(-c2cc(N/N=C/c3cc(Cl)cc(Cl)c3O)ncn2)c1`: the IC50 is > 10.4 µM.

For `C/C(=N\NC(=O)c1ccc(C)c(Br)c1)c1ccc(O)cc1O`, the 50% inhibitory concentration (IC50) is > 10.4 µM.

For the compound `C=C(CC(CN1CCOCC1)C(=O)c1ccccc1)C(=O)c1ccccc1` (stereo not drawn), the half-inhibitory concentration (IC50) is > 10.4 µM.

Take `OC(CNCc1ccccc1)COc1cc2ccsc2c2ccccc12` (stereo not drawn): the IC50 is > 10.4 µM.

With `CCN(CC(O)COCCC12CC3CC(CC(C3)C1)C2)C1CCCCC1` (stereo not drawn), the concentration for half-maximal inhibition (IC50) is > 10.4 µM.

Take `CC(C)(C)N(NC(=O)Nc1ccc(Cl)cc1)C(=O)c1ccccc1F`: the half-maximal inhibitory concentration (IC50) is > 10.4 µM.

`CN1CCC(C2Oc3ccc(F)cc3Sc3ccc(Cl)cc32)CC1` (stereo not drawn): the concentration for half-maximal inhibition (IC50) is > 10.4 µM.

For the compound `C=CCn1c(=O)c(=O)n(CCC(=O)NCc2cccnc2)c2ccccc21`, the half-maximal inhibitory concentration (IC50) is > 10.4 µM.

As to `COc1ccc(C(=O)CC(SCCO)c2ccc(F)cc2)cc1OC` (stereo not drawn), the IC50 is > 10.4 µM.

With `Cc1cc(C(=O)CN2CCCCC2)c(C)n1-c1ccc(Cl)c(Cl)c1`, the IC50 is > 10.4 µM.

With `O=C(N/N=C/c1cc(Cl)ccc1O)c1cc(C2CC2)nc2ccccc12`, the IC50 is > 10.4 µM.

With `COC(C(=O)NCc1ccc(Cl)cc1)(c1ccccc1)c1ccccc1`, the IC50 is > 10.4 µM.

As for `CCn1c2ccccc2c2cc(NC(=O)C(=O)NCCCN(C)C)ccc21`, the IC50 is > 10.4 µM.

Turning to `CCCC(=O)NC(c1ccc(SC)cc1)c1ccc2cccnc2c1O` (stereo not drawn), the half-maximal inhibitory concentration (IC50) was > 10.4 µM.

In the case of `CC(C)C(=O)NC(c1cccs1)c1cc(Cl)c2cccnc2c1O` (stereo not drawn), the IC50 is > 10.4 µM.
